Measured values reported in the NIST ThermoML archive (doi:10.1021/je050001c).
Counter-ions that a name gives are not always drawn.

Conditions: 101.33 kPa, Liquid

CCOC(C)=O [ethyl acetate]
Conditions | mass density [kg/m3]
293.15 K | 900.48
298.15 K | 894.81
303.15 K | 887.14
308.15 K | 882.21
313.15 K | 878.92
318.15 K | 874.51
323.15 K | 870.39
328.15 K | 867.13
333.15 K | 864.72
338.15 K | 861.41
343.15 K | 858.36

Falling or rolling sphere viscometry
Conditions | viscosity [mPa·s]
293.15 K | 0.443
298.15 K | 0.421
303.15 K | 0.399
308.15 K | 0.381
313.15 K | 0.363
318.15 K | 0.346
323.15 K | 0.33
328.15 K | 0.315
333.15 K | 0.301
338.15 K | 0.288
343.15 K | 0.275

CCCC(=O)OCCC(C)C [3-methylbutyl butanoate]
Conditions | mass density [kg/m3]
293.15 K | 866.13
298.15 K | 862.04
303.15 K | 859.14
308.15 K | 857.08
313.15 K | 853.42
318.15 K | 850.11
323.15 K | 845.78
328.15 K | 842.31
333.15 K | 840.73
338.15 K | 835.45
343.15 K | 832.76

Falling or rolling sphere viscometry
Conditions | viscosity [mPa·s]
293.15 K | 1.044
298.15 K | 0.967
303.15 K | 0.897
308.15 K | 0.836
313.15 K | 0.781
318.15 K | 0.731
323.15 K | 0.686
328.15 K | 0.646
333.15 K | 0.609
338.15 K | 0.575
343.15 K | 0.545

CCC/C=C/COC(C)=O [(E)-2-hexenyl acetate]
Conditions | mass density [kg/m3]
293.15 K | 897.84
298.15 K | 894.32
303.15 K | 891.78
308.15 K | 888.46
313.15 K | 884.35
318.15 K | 880.19
323.15 K | 876.14
328.15 K | 872.81
333.15 K | 867.49

Falling or rolling sphere viscometry
Conditions | viscosity [mPa·s]
293.15 K | 0.901
298.15 K | 0.831
303.15 K | 0.77
308.15 K | 0.715
313.15 K | 0.666
318.15 K | 0.622
323.15 K | 0.582
328.15 K | 0.547
333.15 K | 0.514

CCCCCCOC(=O)CCC [hexyl butanoate]
Conditions | mass density [kg/m3] | viscosity [mPa·s]
293.15 K | 860.73 | 1.351
298.15 K | 851 | 1.234
303.15 K | 846.52 | 1.131
308.15 K | 841.51 | 1.014
313.15 K | 837.46 | 0.961
318.15 K | 834.65 | 0.889
323.15 K | 830.78 | 0.825
328.15 K | 828.19 | 0.768
333.15 K | 826.77 | 0.716
338.15 K | 823.81 | 0.669
343.15 K | 820.76 | 0.627

CC/C=C\CCOC=O [(Z)-3-hexenyl formate]
Conditions | mass density [kg/m3]
293.15 K | 909.15
298.15 K | 908.13
303.15 K | 906.6
308.15 K | 904.95
313.15 K | 903.17
318.15 K | 901.19
323.15 K | 898.99
328.15 K | 896.72
333.15 K | 894.16
338.15 K | 891.54
343.15 K | 888.73

Falling or rolling sphere viscometry
Conditions | viscosity [mPa·s]
293.15 K | 0.599
298.15 K | 0.561
303.15 K | 0.527
308.15 K | 0.496
313.15 K | 0.469
318.15 K | 0.443
323.15 K | 0.421
328.15 K | 0.4
333.15 K | 0.38
338.15 K | 0.363
343.15 K | 0.346

CCCCOC(=O)CCC [butyl butanoate]
Conditions | mass density [kg/m3]
293.15 K | 872.45
298.15 K | 869.14
303.15 K | 866.1
308.15 K | 862.19
313.15 K | 858.94
318.15 K | 854.31
323.15 K | 851.47
328.15 K | 848.01
333.15 K | 846.22
338.15 K | 844.03
343.15 K | 841.47

Falling or rolling sphere viscometry
Conditions | viscosity [mPa·s]
293.15 K | 0.948
298.15 K | 0.876
303.15 K | 0.812
308.15 K | 0.755
313.15 K | 0.705
318.15 K | 0.659
323.15 K | 0.618
328.15 K | 0.581
333.15 K | 0.548
338.15 K | 0.517
343.15 K | 0.486

CCOC(=O)CC(C)C [ethyl 3-methylbutanoate]
Conditions | mass density [kg/m3]
293.15 K | 866.23
298.15 K | 864.01
303.15 K | 860.12
308.15 K | 855.98
313.15 K | 851.79
318.15 K | 847.39
323.15 K | 846.24
328.15 K | 842.35
333.15 K | 840.07
338.15 K | 836.31
343.15 K | 833.62

Falling or rolling sphere viscometry
Conditions | viscosity [mPa·s]
293.15 K | 0.805
298.15 K | 0.752
303.15 K | 0.703
308.15 K | 0.659
313.15 K | 0.62
318.15 K | 0.581
323.15 K | 0.544
328.15 K | 0.516
333.15 K | 0.485
338.15 K | 0.457
343.15 K | 0.431

CCCCCCOC(C)=O [hexyl ethanoate]
Conditions | mass density [kg/m3]
293.15 K | 872.9
298.15 K | 867.3
303.15 K | 862.6
308.15 K | 858.33
313.15 K | 854.9
318.15 K | 848.84
323.15 K | 844.21
328.15 K | 839.64
333.15 K | 835.15
338.15 K | 831.4
343.15 K | 826.3

Falling or rolling sphere viscometry
Conditions | viscosity [mPa·s]
293.15 K | 1.118
298.15 K | 1.036
303.15 K | 0.962
308.15 K | 0.895
313.15 K | 0.836
318.15 K | 0.782
323.15 K | 0.733
328.15 K | 0.689
333.15 K | 0.649
338.15 K | 0.612
343.15 K | 0.579
